Results: article PMC11822212, “High-throughput screening identifies Aurora kinase B as a critical therapeutic target for Merkel cell carcinoma” (Nature Communications, 2025)
Structures can show the parent of a compound that is named as a salt. Where two headings read alike, the source gives them in different places.

Tests used:
HACAT cells = assay: qHTS cell viability (CellTiter-Glo, 72 h; primary screen), control cell line; type: cell-based, human
MKL-2 cells (VP-MCC) = assay: qHTS cell viability (CellTiter-Glo, 72 h; primary and follow-up small molecule screen); type: cell-based, human
WAGA cells (VP-MCC) = assay: as above; type: cell-based, human
MCC26 cells (VN-MCC) = assay: as above; type: cell-based, human
HEK293T cells = assay: qHTS cell viability (CellTiter-Glo, 72 h; primary screen), control cell line; type: cell-based, human
MKL-1 cells (VP-MCC) = assay: qHTS cell viability (CellTiter-Glo, 72 h; primary and follow-up small molecule screen); type: cell-based, human
MCC13 cells (VN-MCC) = assay: as above; type: cell-based, human
UISO cells (VN-MCC) = assay: as above; type: cell-based, human
NIH-3T3 cells = assay: qHTS cell viability (CellTiter-Glo, 72 h; primary screen), control cell line; type: cell-based, mouse
CRL-7250 cells = assay: as above; type: cell-based
[1] = primary high-throughput screen, viability 72 h, n = 1

## O=C(O)/C=C(\CC(=O)O)C(=O)O [trans-Aconitic acid]
HACAT cells; area under the dose-response curve, HACAT control cells, AUC<450 = reduced viability
  HACAT_AUC: 490.879
MKL-2 cells (VP-MCC); area under the dose-response curve, MKL-2 cells, AUC<450 = reduced viability
  MKL2_AUC: 378.194
WAGA cells (VP-MCC); area under the dose-response curve, WAGA cells, AUC<450 = reduced viability
  WAGA_AUC: 441.902
MCC26 cells (VN-MCC); area under the dose-response curve, MCC26 cells, AUC<450 = reduced viability
  MCC26_AUC: 496.696
HEK293T cells; area under the dose-response curve, HEK293T control cells, AUC<450 = reduced viability
  HEK293T_AUC: 467.145
MKL-1 cells (VP-MCC); area under the dose-response curve, MKL-1 cells, AUC<450 = reduced viability
  MKL1_AUC: 435.147
MCC13 cells (VN-MCC); area under the dose-response curve, MCC13 cells, AUC<450 = reduced viability
  MCC13_AUC: 525.202
UISO cells (VN-MCC); area under the dose-response curve, UISO cells, AUC<450 = reduced viability
  UISO_AUC: 494.852
NIH-3T3 cells; area under the dose-response curve, NIH3T3 control cells, AUC<450 = reduced viability
  NIH3T3_AUC: 503.673
CRL-7250 cells; area under the dose-response curve, CRL7250 control cells, AUC<450 = reduced viability
  CRL7250_AUC: 486.622

## CS(=O)(=O)Oc1ccc2c(NC(N)=O)c(C(=O)c3ccc(Cl)cc3Cl)oc2c1 [Lirimilast]
HACAT cells
  HACAT_AUC: 475.167
MKL-2 cells (VP-MCC)
  MKL2_AUC: 353.495
WAGA cells (VP-MCC)
  WAGA_AUC: 295.464
MCC26 cells (VN-MCC)
  MCC26_AUC: 450.578
HEK293T cells
  HEK293T_AUC: 473.552
MKL-1 cells (VP-MCC)
  MKL1_AUC: 416.805
MCC13 cells (VN-MCC)
  MCC13_AUC: 475.91
UISO cells (VN-MCC)
  UISO_AUC: 491.115
NIH-3T3 cells
  NIH3T3_AUC: 472.494
CRL-7250 cells
  CRL7250_AUC: 477.656

## CN1CCN(CCCN2c3ccccc3Sc3ccc(C(F)(F)F)cc32)CC1 [Trifluoperazine hydrochloride, reference compound]
HACAT cells; [1]
  Area under the dose-response curve (AUC) HACAT: 455.5
MKL-2 cells (VP-MCC); [1]
  Area under the dose-response curve (AUC) MKL-2: 488.7
WAGA cells (VP-MCC); [1]
  Area under the dose-response curve (AUC) WAGA: 495.2
MCC26 cells (VN-MCC); [1]
  Area under the dose-response curve (AUC) MCC26: 481.8
HEK293T cells; [1]
  Area under the dose-response curve (AUC) HEK293T: 471.8
MKL-1 cells (VP-MCC); [1]
  Area under the dose-response curve (AUC) MKL-1: 497.8
MCC13 cells (VN-MCC); [1]
  Area under the dose-response curve (AUC) MCC13: 486.4
UISO cells (VN-MCC); [1]
  Area under the dose-response curve (AUC) UISO: 500.3
NIH-3T3 cells; [1]
  Area under the dose-response curve (AUC) NIH3T3: 467.6
CRL-7250 cells; [1]
  Area under the dose-response curve (AUC) CRL7250: 412.6

## O=c1cccc2n1C[C@@H]1CNC[C@H]2C1 [Cytisine]
HACAT cells
  HACAT_AUC: 465.853
MKL-2 cells (VP-MCC)
  Area under the dose-response curve (AUC) MKL-2 Replicate 1: 465.6
  Area under the dose-response curve (AUC) MKL-2 Replicate 2: 500.2
  Area under the dose-response curve (AUC) MKL-2 Replicate 3: 495.6
  MKL2_AUC: 398.634
WAGA cells (VP-MCC)
  Area under the dose-response curve (AUC) WAGA Replicate 1: 496.1
  Area under the dose-response curve (AUC) WAGA Replicate 2: 525.9
  Area under the dose-response curve (AUC) WAGA Replicate 3: 499.6
  WAGA_AUC: 346.525
MCC26 cells (VN-MCC)
  Area under the dose-response curve (AUC) MCC26 Replicate 1: 425.8
  Area under the dose-response curve (AUC) MCC26 Replicate 2: 426.1
  Area under the dose-response curve (AUC) MCC26 Replicate 3: 461.0
  MCC26_AUC: 479.664
HEK293T cells
  HEK293T_AUC: 476.432
MKL-1 cells (VP-MCC)
  Area under the dose-response curve (AUC) MKL-1 Replicate 1: 469.7
  Area under the dose-response curve (AUC) MKL-1 Replicate 2: 497.8
  Area under the dose-response curve (AUC) MKL-1 Replicate 3: 481.7
  MKL1_AUC: 435.746
MCC13 cells (VN-MCC)
  Area under the dose-response curve (AUC) MCC13 Replicate 1: 466.2
  Area under the dose-response curve (AUC) MCC13 Replicate 2: 472.1
  Area under the dose-response curve (AUC) MCC13 Replicate 3: 495.9
  MCC13_AUC: 474.327
UISO cells (VN-MCC)
  Area under the dose-response curve (AUC) UISO Replicate 1: 456.3
  Area under the dose-response curve (AUC) UISO Replicate 2: 469.0
  Area under the dose-response curve (AUC) UISO Replicate 3: 502.6
  UISO_AUC: 498.318
NIH-3T3 cells
  NIH3T3_AUC: 477.468
CRL-7250 cells
  CRL7250_AUC: 469.524

## CC(C)CN(C[C@@H](O)[C@H](Cc1ccccc1)NC(=O)O[C@H]1CO[C@H]2OCC[C@H]21)S(=O)(=O)c1ccc(N)cc1 [Darunavir]
HACAT cells
  HACAT_AUC: 465.16
MKL-2 cells (VP-MCC)
  MKL2_AUC: 413.603
WAGA cells (VP-MCC)
  WAGA_AUC: 433.192
MCC26 cells (VN-MCC)
  MCC26_AUC: 501.486
HEK293T cells
  HEK293T_AUC: 472.283
MKL-1 cells (VP-MCC)
  MKL1_AUC: 420.268
MCC13 cells (VN-MCC)
  MCC13_AUC: 471.675
UISO cells (VN-MCC)
  UISO_AUC: 505.158
NIH-3T3 cells
  NIH3T3_AUC: 481.353
CRL-7250 cells
  CRL7250_AUC: 469.055
